Results from paper PMC4713475, “In Vivo Differences between Two Optical Isomers of Radioiodinated o-iodo-trans-decalinvesamicol for Use as a Radioligand for the Vesicular Acetylcholine Transporter” (PLoS ONE, 2016).

Assays:
[1] = In vivo biodistribution study in rats; parameters: species or system rat; details: i.v., n = 4, mean ± SD
Description: Three groups of male Sprague-Dawley (SD) rats (n = 4 in each group), weighing 250–300 g, were anesthetized with ether and given an intravenous (i.v.) injection of (-)-[^125I]OIDV or (+)-[^125I]OIDV (0.4 mL, 185 kBq). At 2, 30, and 60 min post-injection, the animals were sacrificed by decapitation under ether anesthesia. The organs of interest were dissected, weighed, and the radioactivity levels were measured in a gamma scintillation counter (AccuFLEX γ7010, Aloka, Tokyo). The degree of accumulation of radiotracer was expressed as a percentage of the injected dose per gram of tissue (% ID/g).
(§1) The results of biodistribution study were statistically analyzed using one-way ANOVA (non-parametric) followed by a Mann Whitney test. Statistical comparisons for the in vivo blocking experiments were performed using one-way ANOVA (non-parametric), Kruskal-Wallis test, and Dunn’s Multiple Comparison test.

[2] = biological target: T1, VAChT (Rattus norvegicus, UniProt Q62666); experiment: In vivo blocking study of regional brain uptake; details: rats, 60 min
T1 construct: from tissue; host or cells: brain of live male Sprague-Dawley rats (in vivo)
T1 sequence (Q62666 1-530): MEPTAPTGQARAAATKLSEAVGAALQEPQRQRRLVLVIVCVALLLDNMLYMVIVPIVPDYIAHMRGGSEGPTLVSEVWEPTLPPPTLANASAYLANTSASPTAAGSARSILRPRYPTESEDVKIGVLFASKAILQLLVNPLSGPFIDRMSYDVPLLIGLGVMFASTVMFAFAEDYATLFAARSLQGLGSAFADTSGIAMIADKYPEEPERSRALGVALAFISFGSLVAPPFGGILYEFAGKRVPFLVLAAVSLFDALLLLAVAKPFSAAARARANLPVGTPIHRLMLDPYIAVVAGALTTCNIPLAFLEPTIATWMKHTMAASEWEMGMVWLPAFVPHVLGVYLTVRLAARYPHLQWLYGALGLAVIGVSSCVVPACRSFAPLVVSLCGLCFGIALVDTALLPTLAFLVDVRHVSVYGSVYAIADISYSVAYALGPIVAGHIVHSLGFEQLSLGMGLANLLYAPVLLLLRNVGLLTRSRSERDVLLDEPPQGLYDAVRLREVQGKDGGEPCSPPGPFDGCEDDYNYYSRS
Description: The rats were sacrificed 60 minutes after injection and their brains collected. The cortex, striatum, cerebellum, and the remainder of the brain were dissected and separated, and their weights and radioactivity measured.
as §1

[3] = biological target: T1, VAChT; experiment: Ex vivo autoradiography of rat brain; assay type: in vivo; details: 60 min post-injection, tracer alone
Description: Four SD rats were injected intravenously with either (-)-[^125I]OIDV or (+)-[^125I]OIDV (0.4 mL, 1.85 MBq) either alone as a control or with 0.25 μmol (+/–)-vesamicol via the tail vein. At 60 min post-injection, the rats were sacrificed by exsanguination, and perfused via the left ventricle with saline solution (50 mL) followed by 4% paraformaldehyde (pH 7.4, 0.1 M phosphate buffer, 100 mL). Whole brains were removed, frozen in embedding medium at -78°C and cut into 20 μm sections at -25°C using a cryostat microtome. The sections were apposed to an imaging plate (Fujifilm, BAS-IP SR 2025) for eight days. The imaging plates were scanned by a BAS-5000 phosphor image reader (Fujifilm). Ex vivo autoradiograhy of (-)-[^123I]OIDV(0.4 mL, 111 MBq) was performed by the same method of two [^125I]OIDV isomers.

[4] = biological target: T1, VAChT; experiment: VAChT in vitro competitive binding with (-)-[3H]vesamicol in rat brain preparations
[5] = biological target: T2, σ-2 receptor (Rattus norvegicus, UniProt Q5U3Y7); experiment: σ-2 receptor competitive binding with [3H]DTG in rat liver preparations
T2 construct: Rat liver preparations (about 100 μg protein) were incubated in quadruplicate; from tissue; host or cells: liver of male Sprague-Dawley rats
T2 sequence (Q5U3Y7 1-176): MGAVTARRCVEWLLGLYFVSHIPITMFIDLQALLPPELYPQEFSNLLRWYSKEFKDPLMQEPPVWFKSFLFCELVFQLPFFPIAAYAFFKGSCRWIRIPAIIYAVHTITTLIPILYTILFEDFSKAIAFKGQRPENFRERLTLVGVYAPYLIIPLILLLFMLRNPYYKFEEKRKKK
Description: Rat brain and liver tissue preparations were prepared from dissected brains (not including the cerebellum) and livers from male Sprague-Dawley rats (250–300 g), as previously described[34].
The incubated samples were treated in the same manner as described for the σ-1 receptor binding assay.
Ki values were calculated using Graphpad Prism (GraphPad Software, Inc. San Diego, USA).

[6] = Regional biodistribution of (+)-[3H]-3-PPP in rat's brain; assay type: in vivo; details: rats, n = 4, mean ± SD
Source text: S1 Table The regional biodistribution of (+)-[^3H]-3-PPP in rat’s brain.
The values are the mean ± standard deviation (SD) of four rats (n = 4) at each time point.

## OC1CC2CCCCC2CC1N1CCC(c2ccccc2[125I])CC1 (single isomer, unassigned; (+)) [(+)-[^125I]OIDV]
[1]; 2 min post-injection
  Biodistribution, Blood: 0.22 ± 0.03 % ID/g
  Biodistribution, Cerebellum: 0.54 ± 0.15 % ID/g
  Biodistribution, Cortex: 0.56 ± 0.16 % ID/g
  Biodistribution, Heart: 2.79 ± 0.97 % ID/g
  Biodistribution, Kidney: 3.46 ± 0.76 % ID/g
  Biodistribution, Liver: 2.20 ± 0.22 % ID/g
  Biodistribution, Lung: 9.82 ± 1.78 % ID/g
  Biodistribution, Pancreas: 2.54 ± 0.57 % ID/g
  Biodistribution, Rest brain: 0.50 ± 0.13 % ID/g
  Biodistribution, Small intestine: 1.15 ± 1.31 % ID/g
  Biodistribution, Spleen: 1.51 ± 0.37 % ID/g
  Biodistribution, Stomach: 0.17 ± 0.07 % ID/g
  Biodistribution, Striatum: 0.49 ± 0.15 % ID/g
[1]; 30 min post-injection
  Biodistribution, Blood: 0.06 ± 0.00 % ID/g
  Biodistribution, Cerebellum: 0.46 ± 0.08 % ID/g
  Biodistribution, Cortex: 0.46 ± 0.07 % ID/g
  Biodistribution, Heart: 0.45 ± 0.04 % ID/g
  Biodistribution, Kidney: 2.25 ± 0.07 % ID/g
  Biodistribution, Liver: 2.74 ± 0.20 % ID/g
  Biodistribution, Lung: 2.59 ± 0.38 % ID/g
  Biodistribution, Pancreas: 3.51 ± 0.30 % ID/g
  Biodistribution, Rest brain: 0.44 ± 0.06 % ID/g
  Biodistribution, Small intestine: 1.68 ± 0.13 % ID/g
  Biodistribution, Spleen: 2.33 ± 0.25 % ID/g
  Biodistribution, Stomach: 0.78 ± 0.73 % ID/g
  Biodistribution, Striatum: 0.45 ± 0.07 % ID/g
[1]; 60 min post-injection
  Biodistribution, Blood: 0.05 ± 0.00 % ID/g
  Biodistribution, Cerebellum: 0.36 ± 0.05 % ID/g
  Biodistribution, Cortex: 0.31 ± 0.02^! % ID/g
  Biodistribution, Heart: 0.27 ± 0.01 % ID/g
  Biodistribution, Kidney: 1.47 ± 0.06 % ID/g
  Biodistribution, Liver: 1.94 ± 0.22 % ID/g
  Biodistribution, Lung: 1.32 ± 0.08 % ID/g
  Biodistribution, Pancreas: 2.81 ± 0.49 % ID/g
  Biodistribution, Rest brain: 0.32 ± 0.02^+ % ID/g
  Biodistribution, Small intestine: 1.60 ± 0.29 % ID/g
  Biodistribution, Spleen: 1.99 ± 0.18 % ID/g
  Biodistribution, Stomach: 0.29 ± 0.33 % ID/g
  Biodistribution, Striatum: 0.31 ± 0.02^$ % ID/g
[2]; 0.25 μmol (+)-3-PPP co-injected i.v., all four brain regions
  regional brain uptake with co-injection of (+)-3-PPP: 81–88 % of control
[2]; 0.25 μmol (+)-pentazocine co-injected i.v., all four brain regions
  regional brain uptake with co-injection of (+)-pentazocine: No decrease in uptake
[2]; 0.25 μmol (+/-)-vesamicol co-injected i.v., all four brain regions
  regional brain uptake with co-injection of vesamicol: approximately 50 % of control
[2]; 0.250 μmol vesamicol co-injected
  decrease in brain uptake by vesamicol: 50–55%
[3]
  regional brain distribution by ex vivo autoradiography: uniformly low throughout the entire rat brain

## OC1CC2CCCCC2CC1N1CCC(c2ccccc2[123I])CC1 (single isomer, unassigned; (-)) [(-)-[^123I]OIDV]
[3]
  regional brain distribution by ex vivo autoradiography: same regional distribution as that of (-)-[^125I]OIDV

## OC1CCCCC1N1CCC(c2ccccc2)CC1 (racemic) [(+/-)-vesamicol, 2-(4-phenylpiperidino) cyclohexanol, reference compound]
[4]
  Ki: 23.3 ± 3.3 nM
[5]
  Ki: 70 ± 16.6 nM

## CCCN1CCC[C@H](c2cccc(O)c2)C1 [(+)-[^3H]-3-PPP]
[6]; 15 min post-injection
  Radioactivities, Cerebellum: 0.53 ± 0.01 %ID/g
  Radioactivities, Cerebral cortex: 0.67 ± 0.02 %ID/g
[6]; 30 min post-injection
  Radioactivities, Cerebellum: 0.30 ± 0.03 %ID/g
  Radioactivities, Cerebral cortex: 0.37 ± 0.04 %ID/g
[6]; 60 min post-injection
  Radioactivities, Cerebellum: 0.18 ± 0.01 %ID/g
  Radioactivities, Cerebral cortex: 0.18 ± 0.01 %ID/g
